# Measured values taken from US20260199483A1 (Bright Angel Therapeutics Inc., priority 2022, published 2026).
# Key:
# CaCi2 = test: Antifungal sensitivity testing (broth microdilution MIC); assay type: cell-based; details: CaCi2, 96-well broth microdilution, compounds in DMSO
# Procedure: Minimum inhibitory concentrations (MICs) were determined in flat bottom, 96-well plate format using a modified broth microdilution protocol as previously described (Singh et al., PLoS Pathog. 5, e1000532 (2009); LaFayette et al., PLoS Pathog. 6, 79-80 (2010)). Compounds were formulated in dimethyl sulfoxide (DMSO, Sigma-Aldrich Co.). Each compound was tested in duplicate in at least two independent experiments.
# [1] = Mammalian cell toxicity (Cell Titer-Glo); assay type: cell-based; details: human; HepG2 cells, 48 h incubation, Cell Titer-Glo luminescence
# Procedure: HepG2 cells were seeded overnight at 500 cells/well in 384-well plate, then incubated with compounds (10-point concentration titration) for 48 h. Cell Titer-Glo® reagent ([…]) was added to each well and after 10-minute incubation at room temperature the luminescent signal was measured using an Envision plate reader (Perkin Elmer).
# [2] = target: T1, purified recombinant Yck2 (Candida albicans, UniProt A0A1D8PKB4); test: HotSpot kinase assay; assay type: biochemical, C. albicans
# T1 construct: Yck2 residues 37-345 were PCR amplified from C. albicans genomic DNA; His6 (N); TEV protease site (N); made in house; host or cells: E. coli BL21(DE3)-Gold
# Procedure: IC50s were determined using the in vitro HotSpot kinase assay (purified enzymes, ^33P-ATP, an appropriate substrate and 1 μM ATP). For enzyme inhibition assays, compounds were tested in range of ten concentrations from 10 uM to 0.0005 uM using purified recombinant Yck2. Reaction conditions were 1 uM ATP, one hour incubation with inhibitor, and kinase activity detected using 33-ATP phosphorylation of an appropriately selected peptide substrate.
# Yck2 residues 37-345 were PCR amplified from C. albicans genomic DNA and subcloned into the vector pMCSG53, which codes for a N-terminal His6 tag, TEV protease site, followed by the Yck2 protein. E. coli BL21(DE3)-Gold competent cells were transformed with this plasmid and the Yck2 protein was purified using methodology previously described (Stogios et al., ACS Chem. Biol. 13, 1322-1332 (2018)).
# T1 sequence (A0A1D8PKB4 entry or part of it): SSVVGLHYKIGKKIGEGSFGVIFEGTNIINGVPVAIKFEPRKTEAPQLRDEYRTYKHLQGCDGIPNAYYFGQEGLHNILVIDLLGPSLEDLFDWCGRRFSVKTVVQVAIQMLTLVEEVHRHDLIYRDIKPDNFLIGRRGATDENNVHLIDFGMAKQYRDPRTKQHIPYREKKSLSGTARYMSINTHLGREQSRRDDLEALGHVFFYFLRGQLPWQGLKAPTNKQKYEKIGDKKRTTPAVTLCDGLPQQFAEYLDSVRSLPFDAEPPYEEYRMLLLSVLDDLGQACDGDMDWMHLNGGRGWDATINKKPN
SMILES,MIC50 (CaCi2) [µM],IC50 at 48 h [1] [µM],IC50 [2] [µM]
"Fc1ccc(-c2nn3cc(CNC[C@H]4CO[C@@](Cn5cncn5)(c5ccc(F)cc5F)C4)ccc3c2-c2ccncc2)cc1 (stereo in doubt) [Compound I-257, 1-(cis-5-((1H-1,2,4-triazol-1-yl)methyl)-5-(2,4-difluorophenyl)tetrahydrofuran-3-yl)-N-((2-(4-fluorophenyl)-3-(pyridin-4-yl)pyrazolo[1,5-a]pyridin-6-yl)methyl)methanamine]",0.295,5.57,
"Nc1nccc(-c2c(-c3ccc(F)cc3)ncn2C2CCN(CCCNCC(O)(Cn3cncn3)c3ccc(F)cc3F)CC2)n1 (stereo not drawn) [Compound I-80, 1-((3-(4-(5-(2-aminopyrimidin-4-yl)-4-(4-fluorophenyl)-1H-imidazol-1-yl)piperidin-1-yl)propyl)amino)-2-(2,4-difluorophenyl)-3-(1H-1,2,4-triazol-1-yl)propan-2-ol]",,> 20,0.00333
"O=C(NC1CCN(C[C@](O)(Cn2cncn2)c2ccc(F)cc2F)CC1)c1ccc2c(-c3ccncc3)c(-c3ccc(F)cc3)nn2c1 [Compound I-102, (S)-N-(1-(2-(2,4-difluorophenyl)-2-hydroxy-3-(1H-1,2,4-triazol-1-yl)propyl)piperidin-4-yl)-2-(4-fluorophenyl)-3-(pyridin-4-yl)pyrazolo[1,5-a]pyridine-6-carboxamide]",3.12,2.24,0.0466
"O=C(NC1CCN(C[C@@](O)(Cn2cncn2)c2ccc(F)cc2F)CC1)c1ccc2c(-c3ccncc3)c(-c3ccc(F)cc3)nn2c1 [Compound I-103, (R)-N-(1-(2-(2,4-difluorophenyl)-2-hydroxy-3-(1H-1,2,4-triazol-1-yl)propyl)piperidin-4-yl)-2-(4-fluorophenyl)-3-(pyridin-4-yl)pyrazolo[1,5-a]pyridine-6-carboxamide]",0.0488,6.38,0.0495
"O=C(NCC(O)(Cn1cncn1)c1ccc(F)cc1F)c1ccc2c(-c3ccncc3)c(-c3ccc(F)cc3)nn2c1 (stereo not drawn) [Compound I-115, N-(2-(2,4-difluorophenyl)-2-hydroxy-3-(1H-1,2,4-triazol-1-yl)propyl)-2-(4-fluorophenyl)-3-(pyridin-4-yl)pyrazolo[1,5-a]pyridine-6-carboxamide]",1.27,> 20,0.00367
"OC(CNCCOc1cccc2c(-c3ccncc3)c(-c3ccc(F)cc3)nn12)(Cn1cncn1)c1ccc(F)cc1F (stereo not drawn) [Compound I-153, 2-(2,4-difluorophenyl)-1-((2-((2-(4-fluorophenyl)-3-(pyridin-4-yl)pyrazolo[1,5-a]pyridin-7-yl)oxy)ethyl)amino)-3-(1H-1,2,4-triazol-1-yl)propan-2-ol]",1.56,> 20,0.0487
"O=C(NC1CCN(CC(O)(Cn2cncn2)c2ccc(F)cc2F)CC1)c1cccc2c(-c3ccncc3)c(-c3ccc(F)cc3)nn12 (stereo not drawn) [Compound I-155, N-(1-(2-(2,4-difluorophenyl)-2-hydroxy-3-(1H-1,2,4-triazol-1-yl)propyl)piperidin-4-yl)-2-(4-fluorophenyl)-3-(pyridin-4-yl)pyrazolo[1,5-a]pyridine-7-carboxamide]",0.781,10.1,
"CC(C)(C)OC(=O)N1CCc2c(n(CCCN3CCC(n4cnc(-c5ccc(F)cc5)c4-c4ccnc(N)n4)CC3)c3ccc(Cl)cc23)C1 [Compound I-229, tert-butyl 9-(3-(4-(5-(2-aminopyrimidin-4-yl)-4-(4-fluorophenyl)-1H-imidazol-1-yl)piperidin-1-yl)propyl)-6-chloro-1,3,4,9-tetrahydro-2H-pyrido[3,4-b]indole-2-carboxylate]",,5.59,0.0164
"Nc1nccc(-c2c(-c3ccc(F)cc3)ncn2C2CCN(CCCn3c4c(c5cccc(Cl)c53)CCNC4)CC2)n1 [Compound I-231, 4-(1-(1-(3-(8-chloro-1,2,3,4-tetrahydro-9H-pyrido[3,4-b]indol-9-yl)propyl)piperidin-4-yl)-4-(4-fluorophenyl)-1H-imidazol-5-yl)pyrimidin-2-amine]",> 25,1.84,0.00413
"Cn1cc(-c2ccncc2COC(=O)C2CCN(CC(O)(Cn3cncn3)c3ccc(F)cc3F)CC2)c(-c2ccc(F)cc2)n1 (stereo not drawn) [Compound I-239, (4-(3-(4-fluorophenyl)-1-methyl-1H-pyrazol-4-yl)pyridin-3-yl)methyl 1-(2-(2,4-difluorophenyl)-2-hydroxy-3-(1H-1,2,4-triazol-1-yl)propyl)piperidine-4-carboxylate]",0.195,> 20,0.185
"Cn1cc(-c2ccnc3c2C(=O)N(C2CCN(CC(O)(Cn4cncn4)c4ccc(F)cc4F)CC2)C3)c(-c2ccc(F)cc2)n1 (stereo not drawn) [Compound I-242, 6-(1-(2-(2,4-difluorophenyl)-2-hydroxy-3-(1H-1,2,4-triazol-1-yl)propyl)piperidin-4-yl)-4-(3-(4-fluorophenyl)-1-methyl-1H-pyrazol-4-yl)-6,7-dihydro-5H-pyrrolo[3,4-b]pyridin-5-one]",,> 20,0.0153
"O=C(CC(O)(Cn1cncn1)c1ccc(F)cc1F)NCc1ccc2c(-c3ccncc3)c(-c3ccc(F)cc3)nn2c1 (stereo not drawn) [Compound I-255, 3-(2,4-difluorophenyl)-N-((2-(4-fluorophenyl)-3-(pyridin-4-yl)pyrazolo[1,5-a]pyridin-6-yl)methyl)-3-hydroxy-4-(1H-1,2,4-triazol-1-yl)butanamide]",1.56,22.5,
"C[C@@H](NCc1ccc2c(-c3ccncc3)c(-c3ccc(F)cc3)nn2c1)[C@](O)(Cn1cncn1)c1ccc(F)cc1F [Compound I-266, (2R,3R)-2-(2,4-difluorophenyl)-3-(((2-(4-fluorophenyl)-3-(pyridin-4-yl)pyrazolo[1,5-a]pyridin-6-yl)methyl)amino)-1-(1H-1,2,4-triazol-1-yl)butan-2-ol]",0.195,19.5,
OC(Cn1cncn1)(c1ccc(F)cc1F)C(F)(F)c1ccc(C#Cc2ccc(NCc3ccc4c(-c5ccncc5)c(-c5ccc(F)cc5)nn4c3)cc2)cn1 (stereo not drawn) [Compound I-268],1.17,> 50,
OC(Cn1cncn1)(c1ccc(F)cc1F)C(F)(F)c1ccc(C#Cc2ccc(OCCNCc3ccc4c(-c5ccncc5)c(-c5ccc(F)cc5)nn4c3)cc2)cn1 (stereo not drawn) [Compound I-270],0.586,1.54,
